Measurements taken from BindingDB's records for doi:10.1111/j.1476-5381.1981.tb10994.x (Royal Postgraduate Medical School, 1981).
“And” between values parts separate entries of the source, which are not always exact repeats. Identical values can stand only once.

molecular target: Prostacyclin receptor (Homo sapiens, UniProt P43119)
Sequence (P43119 whole entry): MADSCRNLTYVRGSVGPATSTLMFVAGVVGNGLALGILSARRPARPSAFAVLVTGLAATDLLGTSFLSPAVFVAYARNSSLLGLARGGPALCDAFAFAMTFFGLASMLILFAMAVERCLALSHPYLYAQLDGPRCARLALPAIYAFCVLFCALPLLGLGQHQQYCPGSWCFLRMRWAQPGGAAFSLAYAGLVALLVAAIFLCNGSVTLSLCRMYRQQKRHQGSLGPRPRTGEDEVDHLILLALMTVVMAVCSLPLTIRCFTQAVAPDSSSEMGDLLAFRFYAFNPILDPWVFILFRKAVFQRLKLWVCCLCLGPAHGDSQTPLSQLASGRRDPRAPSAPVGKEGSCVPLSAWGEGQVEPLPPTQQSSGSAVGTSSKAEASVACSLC

Compound | Ki
CCCCC[C@H](O)CC[C@H]1[C@H](O)CC(=O)[C@@H]1CCCCCCC(=O)O [CAS_19313-28-1] | 0.315 µM
CCCCC[C@H](O)/C=C/[C@H]1[C@H](O)CC(=O)[C@@H]1C/C=C/CCCC(=O)O [(E)-7-((1R,2R,3R)-3-hydroxy-2-((S,E)-3-hydroxyoct-1-enyl)-5-oxocyclopentyl)hept-5-enoic acid] | 0.735 µM
CCCCC[C@H](O)/C=C/C1[C@H](O)CC(=O)[C@H]1CCCCCCC(=O)O (stereo partly drawn) [8-ISO PROSTAGLANDIN E1] | 0.735 µM
CCCCCC(O)C=CC1C(O)CC(O)C1CCCCCCC(=O)O (stereo not drawn) [NSC_5280939] | > 10 µM
CCCCC[C@@H](O)/C=C/[C@H]1[C@H](O)CC(=O)[C@@H]1C/C=C\CCCC(=O)O | > 10 µM
CCCCC[C@H](O)/C=C/[C@@H]1[C@H]2C/C(=C\CCCC(=O)O)C[C@H]2C[C@H]1O | 0.0166 µM
CCCCC[C@H](O)/C=C/[C@H]1[C@H](O)CC(=O)[C@@H]1C/C=C\CCCC(=O)O [DINOPROSTONE] | > 10 µM
CCCCC[C@H](O)/C=C/C1[C@H](O)C[C@H](O)[C@@H]1C/C=C\CCCC(=O)O (stereo partly drawn) [(Z)-7-[(1R,3R,5S)-3,5-Dihydroxy-2-((E)-(S)-3-hydroxy-oct-1-enyl)-cyclopentyl]-hept-5-enoic acid] | > 10 µM
CCCCC[C@@H](O)/C=C/[C@H]1[C@H](O)CC(=O)[C@@H]1CCCCCCC(=O)O | 0.137 µM
CCCCCC(=O)CC[C@H]1[C@H](O)CC(=O)[C@@H]1C/C=C\CCCC(=O)O [13,14-DIHYDRO-15-KETO PROSTAGLANDIN E2] | 8.41 µM and > 10 µM
CCCCCC(O)C=CC1C(O)CC2OC(CCCCC(=O)O)CC21 (stereo not drawn) [CAS_162981] | 7.35 µM
O=C(O)CCC/C=C\C[C@H]1C(=O)C[C@@H](O)[C@@H]1/C=C/[C@@H](O)CCc1ccccc1 [17-PHENYL TRINOR PROSTAGLANDIN E2] | 4.37 µM
CCCCC[C@H](O)/C=C/[C@@H]1[C@@H](CC(=O)CCC(=O)O)[C@@H](O)C[C@H]1O [2,3-dinor-6-ketoprostaglandin F1alpha] | > 10 µM
